We go through 22 compounds from patent US9108939B2, “(1, 1, 1,3,3,3-hexafluoro-2 hydroxypropan-2-yl) phenyl derivative, pharmaceutical compositions thereof and their use for the treatment of atherosclerosis” (Merck Sharp & Dohme B.V., priority 2009, dated 2015).

One test addresses T1, recombinant human LXRβ-LBD-GST (Homo sapiens, UniProt P55055).
T1 construct: The LBD of LXRα or LXRβ was amplified by PCR and sub-cloned into the prokaryotic expression vector pGEX-4T-1; made in house; host or cells: E. coli
T1 sequence (P55055 222-460 limits assumed): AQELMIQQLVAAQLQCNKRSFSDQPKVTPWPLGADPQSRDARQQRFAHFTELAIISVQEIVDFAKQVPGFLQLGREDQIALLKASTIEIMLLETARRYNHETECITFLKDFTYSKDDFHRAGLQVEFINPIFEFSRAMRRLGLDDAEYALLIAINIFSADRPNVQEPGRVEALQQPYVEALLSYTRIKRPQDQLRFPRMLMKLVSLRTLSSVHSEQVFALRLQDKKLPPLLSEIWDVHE
In words: Radioligand competition binding scintillation proximity assay (SpA), LXRβ.
Settings: not given
The text has this:
Radioligand Competition Binding Scintillation Proximity Assay (SpA) Using Recombinant Human LXRα or LXRβ Protein
These assays utilise the purified ligand binding domain (LBD) of Liver X Receptor alpha (LXRα) or Liver X Receptor beta (LXRβ) fused to […] (GST) tagged protein (LXRα-LBD-GST and LXRβ-LBD-GST respectively) and scintillation proximity assay (SpA) technology to determine binding affinities (pKi) of compounds at the ligand binding domain (LBD) of the human nuclear hormone receptor LXRα or LXRβ.
Preparation of Recombinant Human LXRα and LXRβ
Human LXRα and LXRβ were expressed as GST-fusion proteins in E. coli.
The LBD of LXRα or LXRβ was amplified by PCR and sub-cloned into the prokaryotic expression vector pGEX-4T-1 (GE Healthcare). […] E. coli, containing either the LXRα or LXRβ pGEX-4T-1 plasmid, were propagated, induced, and harvested by centrifugation. The bacterial pellets were resuspended in lysis buffer containing 50 mM tris(Hydroxymethyl)aminomethane (TRIS)-pH 8.0, 100 mM Sodium Chloride (NaCl), 1 mM ethylenediaminetetraacetic acid (EDTA) and one tablet of Proteinase inhibitor cocktail complete/EDTA free (Roche) (per 50 mL of buffer). The mixtures were sonicated on ice with a Branson sonifier. The suspensions were centrifuged and dithiothreitol (DTT) added to the supernatants to obtain a final concentration of 25 mM. […] Proteins were stored in 20 mM N2-hydroxyethylpiperazine-N′-2-ethanesulfonic acid (HEPES), 2 mM DTT with 10% glycerol at −80° C.
Binding to LXRα or LXRβ LBDs
For LXRα or LXRβ assays, an aliquot of recombinant human LXRα-LBD-GST or LXRβ-LBD-GST protein was diluted to 0.5 μg/mL and incubated in a final volume of 100 μL SpA buffer (10 mM potassium hydrogen phosphate anhydrous [K2HPO4], 10 mM potassium Phosphate Monobasic [KH2PO4], 2 mM EDTA pH 7.1, 50 mM NaCl, 1 mM DTT, 2 mM 3-[(3-cholamidopropyl)dimethylammonio]-1-propanesulfonate (CHAPS)) containing Protein-A coupled scintillant filled YtSi SpA beads (GE Healthcare), to a final concentration of 1 mg/mL and Goat anti-GST antibody (GE Healthcare) to a final concentration of 5 μg/mL. […] Test compounds were assayed over a concentration range. After incubation, the assay plates were read on a Packard TopCount.
For the compound `O=C(Nc1ccc(OC2CCN(Cc3ccc(C(O)(C(F)(F)F)C(F)(F)F)cc3)CC2)cc1)Nc1ccnnc1` [Example 1F, 1-(4-(1-(4-(1,1,1,3,3,3-Hexafluoro-2-hydroxypropan-2-yl)benzyl)piperidin-4-yloxy)phenyl)-3-(pyridazin-4-yl)urea], the Ki was 5.89 nM.

The same test, now with this note: read-out: LXRβ pKi (converted).
Take `O=C(Nc1ccc(OC2CCN(Cc3ccc(C(O)(C(F)(F)F)C(F)(F)F)cc3)CC2)cc1)NC1CCOCC1` [Example 1C, 1-(4-(1-(4-(1,1,1,3,3,3-Hexafluoro-2-hydroxypropan-2-yl)benzyl)piperidin-4-yloxy)phenyl)-3-(tetrahydro-2H-pyran-4-yl)urea]: the Ki was 9.77 nM. Same read-out and setting: the figure for `CC(C)(O)CNC(=O)Nc1ccc(OC2CCN(Cc3ccc(C(O)(C(F)(F)F)C(F)(F)F)cc3)CC2)cc1` [Example 1D, 1-(4-(1-(4-(1,1,1,3,3,3-Hexafluoro-2-hydroxypropan-2-yl)benzyl)piperidin-4-yloxy)phenyl)-3-(2-hydroxy-2-methylpropyl)urea] is 11.5 nM. For the compound `O=C(Nc1ccncc1)Nc1ccc(OC2CCN(Cc3ccc(C(O)(C(F)(F)F)C(F)(F)F)cc3)CC2)cc1` [Example 2, 1-(4-(1-(4-(1,1,1,3,3,3-Hexafluoro-2-hydroxypropan-2-yl)benzyl)piperidin-4-yloxy)phenyl)-3-(pyridin-4-yl)urea], the Ki was 2.04 nM. The same measure, in the same setting: the figure for `O=C(Nc1ccc(OC2CCN(Cc3ccc(C(O)(C(F)(F)F)C(F)(F)F)cc3)CC2)cc1)Nc1ccncc1F` [Example 2C, 1-(3-Fluoropyridin-4-yl)-3-(4-(1-(4-(1,1,1,3,3,3-hexafluoro-2-hydroxypropan-2-yl)benzyl)piperidin-4-yloxy)phenyl)urea] is 2 nM; for `O=C(Nc1ccc(OC2CCN(Cc3ccc(C(O)(C(F)(F)F)C(F)(F)F)cc3)CC2)cc1)Nc1ccncn1` [Example 2E, 1-(4-(1-(4-(1,1,1,3,3,3-Hexafluoro-2-hydroxypropan-2-yl)benzyl)piperidin-4-yloxy)phenyl)-3-(pyrimidin-4-yl)urea] it is 3.02 nM; for `O=C(Nc1ccc(CC2CCN(Cc3ccc(C(O)(C(F)(F)F)C(F)(F)F)cc3)CC2)cc1)NC1COC1` [Example 6P, 1-(4-((1-(4-(1,1,1,3,3,3-Hexafluoro-2-hydroxypropan-2-yl)benzyl)piperidin-4-yl)methyl)phenyl)-3-(oxetan-3-yl)urea] it is 9.12 nM. On the same count and under the same terms, the figure for `O=C(Nc1ccc(CC2CCN(Cc3ccc(C(O)(C(F)(F)F)C(F)(F)F)cc3)CC2)cc1)Nc1ccncc1F` [Example 6S, 1-(3-Fluoropyridin-4-yl)-3-(4-((1-(4-(1,1,1,3,3,3-hexafluoro-2-hydroxypropan-2-yl)benzyl)piperidin-4-yl)methyl)phenyl)urea] is 7.41 nM; for `O=C(Nc1ccncc1)Nc1ccc(CC2CCN(Cc3ccc(C(O)(C(F)(F)F)C(F)(F)F)cc3)CC2)cc1` [Example 7, 1-(4-((1-(4-(1,1,1,3,3,3-Hexafluoro-2-hydroxypropan-2-yl)benzyl)piperidin-4-yl)methyl)phenyl)-3-(pyridin-4-yl)urea] it is 7.94 nM.

As to `O=C(Nc1ccc(CC2CCN(Cc3ccc(C(O)(C(F)(F)F)C(F)(F)F)cc3)CC2)cc1)Nc1ccncn1` [Example 7B, 1-(4-((1-(4-(1,1,1,3,3,3-Hexafluoro-2-hydroxypropan-2-yl)benzyl)piperidin-4-yl)methyl)phenyl)-3-(pyrimidin-4-yl)urea], the Ki was 4.27 nM. Same read-out and setting: the figure for `CC(O)(CNC(=O)Nc1ccc(CC2CCN(Cc3ccc(C(O)(C(F)(F)F)C(F)(F)F)cc3)CC2)cc1F)C(F)(F)F` (stereo not shown) [Example 12AA, 1-(2-Fluoro-4-((1-(4-(1,1,1,3,3,3-hexafluoro-2-hydroxypropan-2-yl)benzyl)piperidin-4-yl)methyl)phenyl)-3-(3,3,3-trifluoro-2-hydroxy-2-methylpropyl)urea] is 5.75 nM; for `CC(C)(O)CNC(=O)Nc1ccc(CC2CCN(Cc3ccc(C(O)(C(F)(F)F)C(F)(F)F)cc3)CC2)cc1F` [Example 12AC, 1-(2-Fluoro-4-((1-(4-(1,1,1,3,3,3-hexafluoro-2-hydroxypropan-2-yl)benzyl)piperidin-4-yl)methyl)phenyl)-3-(2-hydroxy-2-methylpropyl)urea] it is 17 nM.

As for `O=C(Nc1ccc(CC2CCN(Cc3ccc(C(O)(C(F)(F)F)C(F)(F)F)cc3)CC2)cc1F)NC1COC1` [Example 12AE, 1-(2-Fluoro-4-((1-(4-(1,1,1,3,3,3-hexafluoro-2-hydroxypropan-2-yl)benzyl)piperidin-4-yl)methyl)phenyl)-3-(oxetan-3-yl)urea], the Ki was 21.9 nM. On the same count and under the same terms, the figure for `O=C(Nc1ccc(CC2CCN(Cc3ccc(C(O)(C(F)(F)F)C(F)(F)F)cc3)CC2)cc1F)NC1CCOCC1` [Example 12AG, 1-(2-Fluoro-4-((1-(4-(1,1,1,3,3,3-hexafluoro-2-hydroxypropan-2-yl)benzyl)piperidin-4-yl)methyl)phenyl)-3-(tetrahydro-2H-pyran-4-yl)urea] is 21.9 nM. On the same count and under the same terms, the figure for `O=C(Nc1cnoc1)Nc1ccc(CC2CCN(Cc3ccc(C(O)(C(F)(F)F)C(F)(F)F)cc3)CC2)cc1F` [Example 12D, 1-(2-Fluoro-4-((1-(4-(1,1,1,3,3,3-hexafluoro-2-hydroxypropan-2-yl)benzyl)piperidin-4-yl)methyl)phenyl)-3-(isoxazol-4-yl)urea] is 4.9 nM; for `Cc1cc(NC(=O)Nc2ccc(CC3CCN(Cc4ccc(C(O)(C(F)(F)F)C(F)(F)F)cc4)CC3)cc2F)no1` [Example 12E, 1-(2-Fluoro-4-((1-(4-(1,1,1,3,3,3-hexafluoro-2-hydroxypropan-2-yl)benzyl)piperidin-4-yl)methyl)phenyl)-3-(5-methylisoxazol-3-yl)urea] it is 9.55 nM; for `O=C(Nc1ccc(CC2CCN(Cc3ccc(C(O)(C(F)(F)F)C(F)(F)F)cc3)CC2)cc1F)N[C@H]1CCOC1` [Example 12F, (S)-1-(2-Fluoro-4-((1-(4-(1,1,1,3,3,3-hexafluoro-2-hydroxypropan-2-yl)benzyl)piperidin-4-yl)methyl)phenyl)-3-(tetrahydrofuran-3-yl)urea] it is 17 nM. On the same count and under the same terms, the figure for `O=C(NCC(O)C(F)(F)F)Nc1ccc(CC2CCN(Cc3ccc(C(O)(C(F)(F)F)C(F)(F)F)cc3)CC2)cc1F` (stereo not shown) [Example 12I, 1-(2-Fluoro-4-((1-(4-(1,1,1,3,3,3-hexafluoro-2-hydroxypropan-2-yl)benzyl)piperidin-4-yl)methyl)phenyl)-3-(3,3,3-trifluoro-2-hydroxypropyl)urea] is 2.75 nM; for `O=C(Nc1ccncc1)Nc1ccc(CC2CCN(Cc3ccc(C(O)(C(F)(F)F)C(F)(F)F)cc3)CC2)cc1F` [Example 13, 1-(2-Fluoro-4-((1-(4-(1,1,1,3,3,3-hexafluoro-2-hydroxypropan-2-yl)benzyl)piperidin-4-yl)methyl)phenyl)-3-(pyridin-4-yl)urea] it is 5.5 nM; for `O=C(Nc1ccncn1)Nc1ccc(CC2CCN(Cc3ccc(C(O)(C(F)(F)F)C(F)(F)F)cc3)CC2)cc1F` [Example 13B, 1-(2-Fluoro-4-((1-(4-(1,1,1,3,3,3-hexafluoro-2-hydroxypropan-2-yl)benzyl)piperidin-4-yl)methyl)phenyl)-3-(pyrimidin-4-yl)urea] it is 9.77 nM. As to `CC(C)(O)CNC(=O)Nc1cc(F)c(CC2CCN(Cc3ccc(C(O)(C(F)(F)F)C(F)(F)F)cc3)CC2)cc1F` [Example 16, 1-(2,5-Difluoro-4-((1-(4-(1,1,1,3,3,3-hexafluoro-2-hydroxypropan-2-yl)benzyl)piperidin-4-yl)methyl)phenyl)-3-(2-hydroxy-2-methylpropyl)urea], the Ki is 24.5 nM. In the case of `CC(O)(CNC(=O)Nc1cc(F)c(CC2CCN(Cc3ccc(C(O)(C(F)(F)F)C(F)(F)F)cc3)CC2)cc1F)C(F)(F)F` (stereo not shown) [Example 16B, 1-(2,5-Difluoro-4-((1-(4-(1,1,1,3,3,3-hexafluoro-2-hydroxypropan-2-yl)benzyl)piperidin-4-yl)methyl)phenyl)-3-(3,3,3-trifluoro-2-hydroxy-2-methylpropyl)urea], the Ki was 7.94 nM.
